From patent US8815872B2, “Macrocyclics pyrimidines as aurora kinase inhibitors” (Merck Patent GmbH, priority 2008, dated 2014)

Tests used:
Test in all cases: Other kinases, single-concentration inhibition (Table 3)
Type in all cases: biochemical
Conditions in all cases: 1 μM
Abl(T315I)(h) = biological target: T1, Abl(T315I)(h) (Homo sapiens, UniProt P00519, T315I)
T1 construct: purchased Caliper Life Sciences
Outline: (§1)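 Caliper mobility-shift kinase assay with labelled peptide and ATP at kinase-specific levels. 90 min, 25 °C, single compound dose.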

Abl(h) = biological target: T2, Abl(h) (Homo sapiens, UniProt P00519)
T2 construct: purchased Caliper Life Sciences
Outline: as §1

Flt3(h) = biological target: T3, Flt3(h) (Homo sapiens, UniProt P36888)
T3 construct: purchased Caliper Life Sciences
T3 sequence (P36888 27-993): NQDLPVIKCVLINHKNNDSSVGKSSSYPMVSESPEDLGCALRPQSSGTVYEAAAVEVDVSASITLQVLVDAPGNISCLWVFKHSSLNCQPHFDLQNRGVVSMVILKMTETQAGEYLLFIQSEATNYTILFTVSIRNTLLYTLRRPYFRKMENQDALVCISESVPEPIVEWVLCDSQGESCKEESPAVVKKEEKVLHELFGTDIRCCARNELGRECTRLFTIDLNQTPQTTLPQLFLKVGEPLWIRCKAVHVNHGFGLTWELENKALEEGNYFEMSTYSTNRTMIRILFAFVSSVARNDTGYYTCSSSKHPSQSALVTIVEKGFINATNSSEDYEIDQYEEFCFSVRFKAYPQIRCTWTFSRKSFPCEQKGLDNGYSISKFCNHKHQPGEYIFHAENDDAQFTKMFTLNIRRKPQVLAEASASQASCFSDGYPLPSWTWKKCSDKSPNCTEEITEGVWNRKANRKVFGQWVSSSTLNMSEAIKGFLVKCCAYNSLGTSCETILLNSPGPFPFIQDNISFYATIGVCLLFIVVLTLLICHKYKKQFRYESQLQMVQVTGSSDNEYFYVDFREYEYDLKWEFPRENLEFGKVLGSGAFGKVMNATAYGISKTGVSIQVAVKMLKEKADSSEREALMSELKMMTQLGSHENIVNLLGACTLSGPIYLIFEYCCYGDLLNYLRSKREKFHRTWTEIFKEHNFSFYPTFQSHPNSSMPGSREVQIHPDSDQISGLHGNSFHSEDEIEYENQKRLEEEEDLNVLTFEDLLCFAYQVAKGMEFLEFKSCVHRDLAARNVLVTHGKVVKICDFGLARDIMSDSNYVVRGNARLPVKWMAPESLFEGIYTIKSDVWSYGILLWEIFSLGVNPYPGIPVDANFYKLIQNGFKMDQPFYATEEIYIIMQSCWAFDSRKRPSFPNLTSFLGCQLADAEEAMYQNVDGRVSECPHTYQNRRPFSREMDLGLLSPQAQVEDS
Outline: as §1

Hck(h) = biological target: T4, Hck(h) (Homo sapiens, UniProt P08631)
T4 construct: purchased Caliper Life Sciences
T4 sequence (P08631 whole entry): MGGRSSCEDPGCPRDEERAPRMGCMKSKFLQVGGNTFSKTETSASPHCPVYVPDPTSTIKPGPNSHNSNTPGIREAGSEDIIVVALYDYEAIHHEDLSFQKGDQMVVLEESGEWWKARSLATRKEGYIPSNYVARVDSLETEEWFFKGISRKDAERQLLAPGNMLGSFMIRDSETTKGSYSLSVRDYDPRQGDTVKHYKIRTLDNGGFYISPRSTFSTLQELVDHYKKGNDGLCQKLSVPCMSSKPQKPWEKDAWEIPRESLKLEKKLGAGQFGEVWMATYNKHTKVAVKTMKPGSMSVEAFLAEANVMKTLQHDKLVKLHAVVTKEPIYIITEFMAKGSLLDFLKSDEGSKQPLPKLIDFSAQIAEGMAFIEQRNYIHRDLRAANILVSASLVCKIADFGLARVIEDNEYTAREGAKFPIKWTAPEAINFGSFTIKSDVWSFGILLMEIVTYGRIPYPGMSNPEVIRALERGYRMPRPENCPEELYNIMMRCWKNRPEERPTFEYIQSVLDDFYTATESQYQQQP
Outline: as §1

Met(h) = biological target: T5, Met(h) (Homo sapiens, UniProt P08581)
T5 construct: purchased Caliper Life Sciences
Outline: as §1

PDGFRβ(h) = biological target: T6, PDGFRβ(h) (Homo sapiens, UniProt P09619)
T6 construct: purchased Caliper Life Sciences
T6 sequence (P09619 33-1106): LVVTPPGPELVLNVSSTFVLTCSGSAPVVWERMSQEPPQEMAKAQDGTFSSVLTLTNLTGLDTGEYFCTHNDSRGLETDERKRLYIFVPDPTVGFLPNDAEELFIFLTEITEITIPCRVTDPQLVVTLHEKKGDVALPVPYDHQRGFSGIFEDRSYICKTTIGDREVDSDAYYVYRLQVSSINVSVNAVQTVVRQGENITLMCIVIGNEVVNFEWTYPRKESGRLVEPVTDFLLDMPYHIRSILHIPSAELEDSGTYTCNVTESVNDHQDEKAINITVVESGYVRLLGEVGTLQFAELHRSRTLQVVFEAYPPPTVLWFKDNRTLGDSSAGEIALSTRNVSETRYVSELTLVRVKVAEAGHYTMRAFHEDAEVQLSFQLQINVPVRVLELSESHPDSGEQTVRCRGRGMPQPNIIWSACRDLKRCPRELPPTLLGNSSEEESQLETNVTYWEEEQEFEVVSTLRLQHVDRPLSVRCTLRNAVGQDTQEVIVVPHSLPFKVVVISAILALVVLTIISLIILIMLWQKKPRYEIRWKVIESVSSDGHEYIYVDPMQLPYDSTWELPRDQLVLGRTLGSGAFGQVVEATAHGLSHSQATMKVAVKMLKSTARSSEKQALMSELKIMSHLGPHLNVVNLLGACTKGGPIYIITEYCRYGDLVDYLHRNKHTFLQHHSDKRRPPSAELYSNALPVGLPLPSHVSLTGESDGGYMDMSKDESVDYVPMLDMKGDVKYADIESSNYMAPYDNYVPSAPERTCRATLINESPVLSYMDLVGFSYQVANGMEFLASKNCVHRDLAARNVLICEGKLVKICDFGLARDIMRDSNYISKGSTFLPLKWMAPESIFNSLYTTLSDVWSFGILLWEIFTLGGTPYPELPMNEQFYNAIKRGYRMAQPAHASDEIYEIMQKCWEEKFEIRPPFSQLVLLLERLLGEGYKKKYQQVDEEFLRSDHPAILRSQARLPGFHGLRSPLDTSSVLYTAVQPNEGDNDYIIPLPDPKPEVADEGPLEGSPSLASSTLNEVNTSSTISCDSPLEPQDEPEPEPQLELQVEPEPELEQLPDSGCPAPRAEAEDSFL
Outline: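 Each kinase was preincubated with a single compound concentration, and the reaction was then initiated with a labelled peptide substrate/ATP mix. After 90 min at 25 °C, reactions were quenched with EDTA and conversion was read by mobility shift.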

ROCK-II(h) = biological target: T7, ROCK-II(h) (Homo sapiens, UniProt O75116)
T7 construct: purchased Caliper Life Sciences
T7 sequence (O75116 whole entry): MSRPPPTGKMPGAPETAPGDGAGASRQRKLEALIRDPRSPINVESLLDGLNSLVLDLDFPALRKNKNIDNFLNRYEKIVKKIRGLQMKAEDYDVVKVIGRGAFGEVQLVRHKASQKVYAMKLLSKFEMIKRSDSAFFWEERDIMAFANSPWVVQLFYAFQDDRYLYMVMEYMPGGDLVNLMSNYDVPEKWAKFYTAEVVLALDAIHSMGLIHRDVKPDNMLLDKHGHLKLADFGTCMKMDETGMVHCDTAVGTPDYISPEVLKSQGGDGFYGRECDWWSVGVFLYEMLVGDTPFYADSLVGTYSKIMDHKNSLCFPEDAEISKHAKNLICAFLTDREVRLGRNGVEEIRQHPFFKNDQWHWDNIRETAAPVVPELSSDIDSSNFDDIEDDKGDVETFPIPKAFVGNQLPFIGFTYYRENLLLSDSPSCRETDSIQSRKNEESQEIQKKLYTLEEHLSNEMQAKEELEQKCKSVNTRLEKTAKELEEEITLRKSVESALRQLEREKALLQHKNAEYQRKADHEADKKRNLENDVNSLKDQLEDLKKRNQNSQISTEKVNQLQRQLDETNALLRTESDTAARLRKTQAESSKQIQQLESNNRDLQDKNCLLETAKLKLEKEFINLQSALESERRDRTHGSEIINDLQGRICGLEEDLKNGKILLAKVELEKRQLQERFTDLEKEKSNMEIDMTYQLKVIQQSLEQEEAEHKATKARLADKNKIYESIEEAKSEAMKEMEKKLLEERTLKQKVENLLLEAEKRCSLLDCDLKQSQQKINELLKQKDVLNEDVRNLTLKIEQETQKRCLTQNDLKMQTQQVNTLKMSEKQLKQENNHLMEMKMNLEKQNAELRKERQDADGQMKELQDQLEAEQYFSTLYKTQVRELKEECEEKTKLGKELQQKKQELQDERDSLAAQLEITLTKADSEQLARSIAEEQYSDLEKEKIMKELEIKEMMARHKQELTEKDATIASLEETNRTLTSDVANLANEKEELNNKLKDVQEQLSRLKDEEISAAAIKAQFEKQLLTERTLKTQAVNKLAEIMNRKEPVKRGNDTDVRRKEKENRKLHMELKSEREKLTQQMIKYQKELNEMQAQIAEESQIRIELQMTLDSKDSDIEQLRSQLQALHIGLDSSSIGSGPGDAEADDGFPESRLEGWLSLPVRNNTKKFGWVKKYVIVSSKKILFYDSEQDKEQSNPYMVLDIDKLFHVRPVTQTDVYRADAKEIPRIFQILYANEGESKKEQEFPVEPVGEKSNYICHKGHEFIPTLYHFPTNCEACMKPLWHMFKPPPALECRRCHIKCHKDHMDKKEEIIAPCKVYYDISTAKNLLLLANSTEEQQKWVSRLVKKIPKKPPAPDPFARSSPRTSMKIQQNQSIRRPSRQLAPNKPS
Outline: as §1

Tie2(R849W)(h) = biological target: T8, Tie2(R849W)(h) (Homo sapiens, UniProt Q02763, R849W)
T8 construct: purchased Caliper Life Sciences
T8 sequence (Q02763 23-1124 R849W): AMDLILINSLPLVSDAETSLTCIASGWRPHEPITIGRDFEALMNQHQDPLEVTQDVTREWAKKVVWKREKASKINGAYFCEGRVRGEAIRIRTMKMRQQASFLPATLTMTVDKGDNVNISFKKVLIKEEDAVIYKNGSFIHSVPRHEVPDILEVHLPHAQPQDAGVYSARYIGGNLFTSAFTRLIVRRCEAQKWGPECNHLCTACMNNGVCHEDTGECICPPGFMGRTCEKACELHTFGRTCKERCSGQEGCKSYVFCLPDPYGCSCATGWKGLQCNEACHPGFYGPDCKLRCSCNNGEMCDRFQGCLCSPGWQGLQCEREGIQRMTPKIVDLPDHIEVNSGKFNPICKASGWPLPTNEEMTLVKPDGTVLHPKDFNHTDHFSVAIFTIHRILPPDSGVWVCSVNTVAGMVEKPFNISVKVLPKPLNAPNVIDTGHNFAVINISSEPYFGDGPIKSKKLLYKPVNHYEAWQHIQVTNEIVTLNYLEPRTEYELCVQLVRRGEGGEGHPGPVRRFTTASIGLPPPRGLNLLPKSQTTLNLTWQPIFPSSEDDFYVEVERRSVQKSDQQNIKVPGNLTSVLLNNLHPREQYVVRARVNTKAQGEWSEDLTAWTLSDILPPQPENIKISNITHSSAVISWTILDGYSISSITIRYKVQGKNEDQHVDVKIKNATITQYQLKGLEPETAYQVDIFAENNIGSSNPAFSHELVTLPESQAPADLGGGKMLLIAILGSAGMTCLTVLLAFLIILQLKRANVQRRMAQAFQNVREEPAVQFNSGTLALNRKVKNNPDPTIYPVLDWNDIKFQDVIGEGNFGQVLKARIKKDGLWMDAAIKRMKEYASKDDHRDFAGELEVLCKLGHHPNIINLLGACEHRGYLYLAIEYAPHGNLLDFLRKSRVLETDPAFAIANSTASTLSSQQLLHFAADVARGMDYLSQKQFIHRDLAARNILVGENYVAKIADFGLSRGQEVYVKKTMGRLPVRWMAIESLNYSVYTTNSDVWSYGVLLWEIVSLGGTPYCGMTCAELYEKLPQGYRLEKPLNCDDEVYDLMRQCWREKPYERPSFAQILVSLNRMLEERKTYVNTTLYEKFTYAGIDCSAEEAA
Outline: as §1

Tie2(h) = biological target: T9, Tie2(h) (Homo sapiens, UniProt Q02763)
T9 construct: purchased Caliper Life Sciences
T9 sequence (Q02763 23-1124): as the sequence (Q02763 23-1124 R849W) above, with W827R counted along it
Outline: as §1

TrkA(h) = biological target: T10, TrkA(h) (Homo sapiens, UniProt P04629)
T10 construct: purchased Caliper Life Sciences
T10 sequence (P04629 33-796): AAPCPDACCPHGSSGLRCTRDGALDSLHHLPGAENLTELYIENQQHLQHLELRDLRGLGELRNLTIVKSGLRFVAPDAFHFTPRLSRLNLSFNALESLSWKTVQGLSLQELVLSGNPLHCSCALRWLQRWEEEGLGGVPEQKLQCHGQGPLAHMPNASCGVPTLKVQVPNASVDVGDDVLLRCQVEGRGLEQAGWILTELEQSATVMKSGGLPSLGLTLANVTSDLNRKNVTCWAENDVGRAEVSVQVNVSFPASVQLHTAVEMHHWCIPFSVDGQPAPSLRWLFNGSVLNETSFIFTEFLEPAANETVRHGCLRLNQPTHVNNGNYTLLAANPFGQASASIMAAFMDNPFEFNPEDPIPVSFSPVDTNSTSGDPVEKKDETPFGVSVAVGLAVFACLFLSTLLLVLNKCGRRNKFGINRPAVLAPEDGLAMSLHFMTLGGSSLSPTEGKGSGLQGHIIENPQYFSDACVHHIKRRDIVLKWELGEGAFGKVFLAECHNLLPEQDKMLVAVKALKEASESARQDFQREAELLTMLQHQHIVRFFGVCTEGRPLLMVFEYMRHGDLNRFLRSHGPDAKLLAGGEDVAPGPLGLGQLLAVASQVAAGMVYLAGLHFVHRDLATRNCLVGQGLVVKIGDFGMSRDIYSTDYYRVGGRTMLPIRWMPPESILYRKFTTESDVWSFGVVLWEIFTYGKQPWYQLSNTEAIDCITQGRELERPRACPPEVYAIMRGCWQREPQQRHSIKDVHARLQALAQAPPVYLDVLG
Outline: as §1

ZAP-70(h) = biological target: T11, ZAP-70(h) (Homo sapiens, UniProt P43403)
T11 construct: purchased Caliper Life Sciences
T11 sequence (P43403 1-619): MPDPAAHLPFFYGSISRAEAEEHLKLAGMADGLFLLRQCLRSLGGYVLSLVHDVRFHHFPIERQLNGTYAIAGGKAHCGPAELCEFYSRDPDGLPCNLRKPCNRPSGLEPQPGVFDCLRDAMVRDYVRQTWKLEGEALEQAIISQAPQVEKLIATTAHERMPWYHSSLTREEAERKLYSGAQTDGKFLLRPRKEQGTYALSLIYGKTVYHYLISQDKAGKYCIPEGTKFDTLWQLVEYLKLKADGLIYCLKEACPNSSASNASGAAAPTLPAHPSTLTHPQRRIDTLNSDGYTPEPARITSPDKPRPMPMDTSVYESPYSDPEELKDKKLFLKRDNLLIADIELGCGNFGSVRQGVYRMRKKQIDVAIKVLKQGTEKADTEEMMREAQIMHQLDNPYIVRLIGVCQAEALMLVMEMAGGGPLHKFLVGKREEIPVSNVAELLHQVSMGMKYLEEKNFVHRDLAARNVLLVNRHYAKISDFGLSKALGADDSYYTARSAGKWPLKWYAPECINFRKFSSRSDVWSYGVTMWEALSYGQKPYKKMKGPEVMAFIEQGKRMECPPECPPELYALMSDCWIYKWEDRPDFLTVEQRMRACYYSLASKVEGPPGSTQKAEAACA
Outline: as §1

SMILES	% inhibition Abl(T315I)(h) (Abl(T315I)(h))	inhibition at 1 µM (Abl(h))	% inhibition Flt3(h) (Flt3(h))	% inhibition Hck(h) (Hck(h))	% inhibition Met(h) (Met(h))	% kinase activity remaining (PDGFRβ(h))	% inhibition ROCK-II(h) (ROCK-II(h))	% inhibition Tie2(R849W)(h) (Tie2(R849W)(h))	% inhibition Tie2(h) (Tie2(h))	% inhibition TrkA(h) (TrkA(h))	% inhibition ZAP-70(h) (ZAP-70(h))
C=C[C@@H]1C[C@@H]2/C=C/COc3cccc(c3)Nc3ncc(F)c(n3)N[C@H]2[C@H]1C(N)=O (single isomer, unassigned) [Example 3]	92%	105%	98%	101%	115%	110%	80%	93%	99%	58%	109%
NC(=O)[C@H]1[C@H]2C[C@H]3[C@H]1Nc1nc(ncc1F)Nc1cccc(c1)NC(=O)CS[C@@H]3C2 [Example 27]	1%	3%	66%	13%	69%	115%	110%	17%	2%	1%	125%
N#Cc1ccc2cc1NC(=O)CS[C@@H]1C[C@@H]3C[C@H]1[C@@H](Nc1nc(ncc1F)N2)[C@H]3C(N)=O [Example 26]	2%	-1%	93%	10%	9%	58%	94%	26%	44%	1%	112%
